Among the data in PubChem BioAssay AID330 (DTP/NCI, 2004) are T/C values, retold here.

The test deals with P388 leukemia ip, CD2F1 mice, survival T/C. Kind of test: NCI In Vivo Anticancer Drug Screen. Data for tumor model P388 Leukemia (intraperitoneal) in CD2F1 (CDF1) mice. To be noted: endpoint: median survival time, higher = longer survival. The method in brief:
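Mice carrying the transplanted tumor received test compound or vehicle. Survival was recorded in each group, and the value is the treated-group measurement divided by that of the vehicle-treated control group.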

Where [1] appears, read: dose: 50.0 mg/kg/injection, schedule: Q01DX009 (ip), vehicle: saline.
[2] abbreviates: dose: 100.0 mg/kg/injection, schedule: Q01DX009 (ip), vehicle: saline.
The mark [3] stands for this setting: dose: 100.0 mg/kg/injection, schedule: Q04DX003 (ip), vehicle: saline.
Where [4] appears, read: dose: 200.0 mg/kg/injection, schedule: Q01DX009 (ip), vehicle: saline.
Where [5] appears, read: dose: 200.0 mg/kg/injection, schedule: Q04DX003 (ip), vehicle: saline.
[6] abbreviates: dose: 50.0 mg/kg/injection, schedule: Q01DX009 (ip), vehicle: Klucel (hydroxypropylcellulose) (HPC).
The mark [7] stands for this setting: dose: 100.0 mg/kg/injection, schedule: Q01DX009 (ip), vehicle: Klucel (hydroxypropylcellulose) (HPC).
[8] abbreviates: dose: 200.0 mg/kg/injection, schedule: Q01DX009 (ip), vehicle: Klucel (hydroxypropylcellulose) (HPC).
[9] abbreviates: dose: 50.0 mg/kg/injection, schedule: Q01DX005 (ip), vehicle: saline.
[10] abbreviates: dose: 100.0 mg/kg/injection, schedule: Q01DX005 (ip), vehicle: saline.
The mark [11] stands for this setting: dose: 200.0 mg/kg/injection, schedule: Q01DX005 (ip), vehicle: saline.
[12] abbreviates: dose: 100.0 mg/kg/injection, schedule: Q04DX003 (ip), vehicle: saline with Tween-80.
The mark [13] stands for this setting: dose: 200.0 mg/kg/injection, schedule: Q04DX003 (ip), vehicle: saline with Tween-80.
[14] abbreviates: dose: 400.0 mg/kg/injection, schedule: Q04DX003 (ip), vehicle: saline with Tween-80.
The mark [15] stands for this setting: dose: 50.0 mg/kg/injection, schedule: Q01DX005 (ip), vehicle: saline with Tween-80.
[16] abbreviates: dose: 100.0 mg/kg/injection, schedule: Q01DX005 (ip), vehicle: saline with Tween-80.
[17] abbreviates: dose: 200.0 mg/kg/injection, schedule: Q01DX005 (ip), vehicle: saline with Tween-80.
[18] abbreviates: dose: 25.0 mg/kg/injection, schedule: Q01DX001 (ip), vehicle: saline with Tween-80.
Setting [19] is: dose: 50.0 mg/kg/injection, schedule: Q01DX001 (ip), vehicle: saline with Tween-80.
[20] abbreviates: dose: 100.0 mg/kg/injection, schedule: Q01DX001 (ip), vehicle: saline with Tween-80.
Where [21] appears, read: dose: 25.0 mg/kg/injection, schedule: Q01DX009 (ip), vehicle: saline with Tween-80.
The mark [22] stands for this setting: dose: 50.0 mg/kg/injection, schedule: Q01DX009 (ip), vehicle: saline with Tween-80.
[23] abbreviates: dose: 100.0 mg/kg/injection, schedule: Q01DX009 (ip), vehicle: saline with Tween-80.
The mark [24] stands for this setting: dose: 200.0 mg/kg/injection, schedule: Q01DX009 (ip), vehicle: saline with Tween-80.

Several values for one entry are separate records, joined by “and”; a condition that tells them apart may be missing. Equal values may be shown once. Inconclusive results and toxic doses are left out.

With `O=C(c1ccccc1)N1CCCCC1`, the T/C runs as follows: under setting [1], 95 % of control; under setting [2], 100 % of control; under setting [3], 110 % of control; under setting [4], 100 % of control; under setting [5], 110 % of control.

For the compound `COC(=O)c1ccc(SCCC(=O)CNc2nc(N)nc(N)c2[N+](=O)[O-])cc1`, the T/C by setting is: under setting [6], 96 % of control; under setting [7], 93 % of control; under setting [8], 96 % of control.

For `CN(C)C1C(=O)C(C(=O)NCN2CCN(CCO)CC2)=C(O)C2(O)C(=O)C3=C(O)c4c(O)cccc4C(C)(O)C3CC12` (stereo not given), the T/C was 104 % of control (dose: 25.0 mg/kg/injection, schedule: Q01DX005 (ip), vehicle: saline); 102 % of control under setting [9]; 104 % of control under setting [10]; 95 % of control under setting [11].

For the compound `CCNC(=O)c1nnn2c1nc(N)c1cc(Cl)ccc12`, the T/C is 96 % of control (dose: 12.5 mg/kg/injection, schedule: Q01DX005 (ip), vehicle: Klucel (hydroxypropylcellulose) (HPC)); 96 % of control (dose: 25.0 mg/kg/injection, schedule: Q01DX005 (ip), vehicle: Klucel (hydroxypropylcellulose) (HPC)); 95 % of control (dose: 50.0 mg/kg/injection, schedule: Q01DX005 (ip), vehicle: Klucel (hydroxypropylcellulose) (HPC)); 94 % of control (dose: 100.0 mg/kg/injection, schedule: Q01DX005 (ip), vehicle: Klucel (hydroxypropylcellulose) (HPC)); 88 % of control (dose: 200.0 mg/kg/injection, schedule: Q01DX005 (ip), vehicle: Klucel (hydroxypropylcellulose) (HPC)).

Regarding `Cc1ccc(S(=O)(=O)NC(=S)Nc2ccccc2)cc1`, the T/C was 99 % of control under setting [12], 108 % of control under setting [13] and 100 % of control under setting [14].

Turning to `COc1ccccc1OCC(Cn1c(=O)nc(-c2ccccc2)c2cc(Cl)ccc21)OC(N)=O` (stereo not given), the T/C under setting [15] was 104 % of control, the T/C under setting [16] was 100 % of control and the T/C under setting [17] is 95 % of control.

`CCN(CC)CCCNc1cc(C)c2cc(OC)ccc2n1`: the T/C by setting is: under setting [18], 99 % of control; under setting [19], 97 % of control; under setting [20], 90 % of control.

In the case of `N#CC1=C(Nc2ccccc2Cl)SC2(CCCC2)NC1=O`, the T/C is 100 % of control (dose: 60.0 mg/kg/injection, schedule: Q01DX005 (ip), vehicle: Klucel (hydroxypropylcellulose) (HPC)); 100 % of control (dose: 120.0 mg/kg/injection, schedule: Q01DX005 (ip), vehicle: Klucel (hydroxypropylcellulose) (HPC)); 92 % of control (dose: 240.0 mg/kg/injection, schedule: Q01DX005 (ip), vehicle: Klucel (hydroxypropylcellulose) (HPC)).

Take `Cn1ncc2c(=O)[nH]cnc21`: the T/C by setting is: under setting [6], 93 % of control; under setting [7], 93 % of control; under setting [8], 96 % of control; (dose: 400.0 mg/kg/injection, schedule: Q01DX009 (ip), vehicle: Klucel (hydroxypropylcellulose) (HPC)) 97 % of control.

With `Nc1nnc2nc(C3(c4nc5nnc(N)n5[nH]c4=O)CCCC3=O)c(=O)[nH]n12`, the T/C under setting [9] was 106 % of control, the T/C under setting [10] is 94 % of control and the T/C under setting [11] is 106 % of control.

For the compound `COc1cc(Oc2c(C)c(Cl)c(OC)c(Cl)c2OC)c2c(c1Cl)COC2=O`, the T/C reads like this: (dose: 7.5 mg/kg/injection, schedule: Q01DX005 (ip), vehicle: Klucel (hydroxypropylcellulose) (HPC)) 97 % of control; (dose: 15.0 mg/kg/injection, schedule: Q01DX005 (ip), vehicle: Klucel (hydroxypropylcellulose) (HPC)) 97 % of control; (dose: 30.0 mg/kg/injection, schedule: Q01DX005 (ip), vehicle: Klucel (hydroxypropylcellulose) (HPC)) 100 % of control.

For `O=C(CCCBr)c1ccccc1`, the T/C under setting [21] is 107 % of control, the T/C under setting [22] is 100 % of control, the T/C under setting [23] is 107 % of control and the T/C under setting [24] is 100 % of control.

For the compound `CC1C(O)CC23COC(=O)C2=CCCC3C1(C)CCC1=CC(=O)OC1` (stereo not given), the T/C was 101 % of control (dose: 8.75 mg/kg/injection, schedule: Q01DX005 (ip), vehicle: Klucel (hydroxypropylcellulose) (HPC)); 106 % of control (dose: 17.5 mg/kg/injection, schedule: Q01DX005 (ip), vehicle: Klucel (hydroxypropylcellulose) (HPC)); 92 % of control (dose: 35.0 mg/kg/injection, schedule: Q01DX005 (ip), vehicle: Klucel (hydroxypropylcellulose) (HPC)); 97 % of control (dose: 70.0 mg/kg/injection, schedule: Q01DX005 (ip), vehicle: Klucel (hydroxypropylcellulose) (HPC)).

Regarding `CN(c1ccccc1)c1c2c(oc(=O)c1Cl)CCSC2`, the T/C reads like this: under setting [12], 94 % of control; under setting [13], 98 % of control; under setting [14], 91 % of control.

Turning to `C/C(=N\NC(=S)N1CCN(c2ccccc2)CC1)c1cnccn1`, the T/C by setting is: (dose: 1.56 mg/kg/injection, schedule: Q01DX005 (ip), vehicle: saline with Tween-80) 103 % of control; (dose: 3.13 mg/kg/injection, schedule: Q01DX005 (ip), vehicle: saline with Tween-80) 105 % of control; (dose: 6.25 mg/kg/injection, schedule: Q01DX005 (ip), vehicle: saline with Tween-80) 111 % of control and 93 % of control; (dose: 12.5 mg/kg/injection, schedule: Q01DX005 (ip), vehicle: saline with Tween-80) 109 % of control.

As to `O=S1(=O)CCCO1`, the T/C runs as follows: under setting [3], 100 % of control; under setting [5], 118 % of control.

On to `C/C(=C\c1ccc(OCC(=O)O)c2ccccc12)[N+](=O)[O-]`, for which the T/C runs as follows: under setting [18], 110 % of control; under setting [19], 111 % of control; under setting [20], 101 % of control.

As to `Cc1c(O)/c(=C\O)c2nc3c(=O)ccc(C(=O)NCCN(C)C)c3[nH]c2c1=O`, the T/C is 117 % of control (dose: 6.25 mg/kg/injection, schedule: Q01DX005 (ip), vehicle: other); 160 % of control (dose: 7.5 mg/kg/injection, schedule: Q03HX015 (ip), vehicle: water); 120 % of control (dose: 12.5 mg/kg/injection, schedule: Q01DX005 (ip), vehicle: other); 177 % of control (dose: 15.0 mg/kg/injection, schedule: Q03HX015 (ip), vehicle: water); 123 % of control (dose: 50.0 mg/kg/injection, schedule: Q01DX005 (ip), vehicle: other).

With `O=C1CCS(=O)(=O)CC1`, the T/C runs as follows: under setting [21], 108 % of control; under setting [22], 103 % of control and 107 % of control; under setting [23], 114 % of control and 120 % of control; under setting [24], 107 % of control and 123 % of control; (dose: 400.0 mg/kg/injection, schedule: Q01DX009 (ip), vehicle: saline with Tween-80) 113 % of control and 120 % of control; (dose: 600.0 mg/kg/injection, schedule: Q01DX009 (ip), vehicle: saline with Tween-80) 123 % of control.

On to `O=C1OC(=O)[C@H]2[C@@H]1[C@H]1C=C[C@@H]2OC1=O`, for which the T/C is, setting by setting: (dose: 12.5 mg/kg/injection, schedule: Q01DX009 (ip), vehicle: saline with Tween-80) 123 % of control; (dose: 12.5 mg/kg/injection, schedule: Q01DX009 (ip), vehicle: saline) 103 % of control; under setting [21], 108 % of control; (dose: 25.0 mg/kg/injection, schedule: Q01DX009 (ip), vehicle: saline) 100 % of control; under setting [22], 105 % of control; under setting [1], 99 % of control and 92 % of control. The T/C is 101 % of control under setting [23], 100 % of control under setting [2] and 98 % of control under setting [4].

With `O=C(O)C1CSC(c2ccccc2O)N1` (stereo not given), the T/C was 90 % of control under setting [1], 96 % of control under setting [2] and 90 % of control under setting [4].

On to `Cc1[nH]nc2c1NC(=O)OC(C)C2` (stereo not given), for which the T/C by setting is: under setting [15], 101 % of control; under setting [16], 101 % of control; under setting [17], 106 % of control.
